Test results reported in article PMC10477886, “Adamantaniline Derivatives Target ATP5B to Inhibit Translation of Hypoxia Inducible Factor‐1α” (Advanced Science, 2023).

Assays:
[1] = toxicity in ICR mice, administering for 1 week; type: in vivo; details: 100 mg kg^−1 intraperitoneal for 1 week
Experimental: (§1) First, we roughly screened the concentrations in the plasma of seven selected compounds (1‐3n, 1‐3au, 1‐4a, 1‐4k, 1‐4l, 1‐4m, and 1‐4p) at indicated times after intraperitoneal administration in the Institute of Cancer Research (ICR) mice at a dose of 50 mg kg^−1 with two mice per compound, the blood at five different times was collected and the plasma concentration was analyzed finally. […] Besides, we examined the toxicity of HI‐104 in ICR mice by administering for 1 week at a dose of 100 mg kg^−1 by intraperitoneal injection.

[2] = plasma concentration and pharmacokinetics after intraperitoneal administration in ICR mice; type: in vivo
Experimental: as §1

[3] = system: HIF‐1α transcriptional activity; test: dual‐luciferase assay (HRE‐Firefly Luciferase / renilla) of HIF‐1α transcriptional activity in HEK293T cells; type: cell-based, human; details: for inhibition at 10 µM / IC50: Homo sapiens, HEK-293T, mean ± s.d. (n = 3); for inhibition at 10 µM: incubation 24 h, read-out: Inhibition rate [%] @ 10 µM; for IC50: HEK293T dual‐luciferase
From the text: To screen HIF‐1α inhibitors in a robust cell‐based assay, we optimized the dual‐luciferase assay with pLenti‐HIF‐1αP2A (P402A and P564A) instead of pLenti‐HIF‐1α in order to ensure the expression of HIF‐1α under normoxia condition. In the cell‐based assay, HEK293T cells were co‐transfected with pLenti‐HIF‐1αP2A, renilla, and hypoxia‐responsive element (HRE)‐Firefly Luciferase (Figure S1, Supporting Information). […] Three compounds were selected as the positive controls including two inhibitors (PX‐478 2HCl and BAY 87‐2243) and an activator (BAY 85‐3934) in the screening assay.
HEK293T cells were stably transfected with reporter plasmids pGMLV‐HRE‐LUC‐puromycin, pMSCV‐renilla‐hygromycin, and pLenti‐HIF‐1αP2A‐neomycin. Stable cell line constructed above, 293‐HIF‐1αP2A‐HRE‐Fluc‐Rluc, were seeded in 384‐well plates and cultured in DMEM with 10% FBS. The following day, the cells were pretreated with indicated chemical compounds from the National Compound Library of the Shanghai Institute of Materia Medica, Chinese Academy of Sciences by Mosquito HTS. The plate was then placed in an incubator chamber and incubated at 37 °C for 24 h. The ratio of firefly/renilla luciferase activity was determined by using the Envision (PerkinElmer).
Stable cell line 293‐HRE‐Fluc‐Rluc expressed luciferase and renilla or HEK293T cells transfected with indicated plasmids (pGL3‐HRE‐luciferase and pSV40‐renilla) were seeded in a 96‐well plate. The cells were co‐incubated with indicated compounds for 24 h and luciferase activities were detected in Microplate Reader (BioTek SYNEGRY H1) using the Dual Luciferase Reporter Assay System Kit (Promega, USA E1910) according to the manufacturer's instruction. The relative Luc activity was normalized by renilla activity. Three independent experiments were performed, and the calculated means and SDs are presented.

MHCC97‐L xenograft tumor = test: MHCC97‐L xenograft model in nude mice (wildtype and ATP5A/ATP5B knock‐out); type: in vivo
From the text: HIF‐1α overexpression is implicated in human hepatocellular carcinoma (HCC).^[ [57] ^] To investigate the biological significance of HI‐104 in the progression of HCC by targeting ATP5A or ATP5B, we performed xenograft models in nude mice with ATP5A or ATP5B stable knock‐out MHCC97‐L cell lines (Figure 6A). The cells were inoculated to 6–8 weeks old nude mice under the armpits, and daily intraperitoneal injection of HI‐104 was started after the tumor volume reached 100 mm^3. Tumor volume and body weight were monitored during the treatment.
MHCC97L wildtype and ATP5A or ATP5B stable knock‐out cells (3 × 10^6) were implanted subcutaneously into the right flanks of 6‐week‐old female BALB/c nude mice. After most of the tumors had reached a threshold size of 100 mm^3, the mice received an intraperitoneal injection of vehicle alone (10% DMSO, 10% Cremophor, and 80% saline, pH 7–8) or HI‐104 over 10 days. The tumor volume was monitored every other day with calipers. After 10 days of treatment or if the mice met humane endpoint criteria, the mice were sacrificed, and tumors were dissected, photographed, and weighed. Tumor tissues were either collected and fixed in 10% neutral‐buffered formalin or snap‐frozen in liquid N2 and stored at −80 °C for subsequent analyses. All animals used in this study were handled in accordance with federal and institutional guidelines under a protocol approved by the Institutional Animal Care and Use Committee at Shanghai Jiao Tong University School of Medicine.

F1‐ATP synthase complex = F1‐ATP synthase complex (Sus scrofa, UniProt K7GLT8+P80021); test: fluorescence polarization binding assay; design: species or system pig
From the text: ATP5A and ATP5B are important components of FOF1–ATP synthase, also known as ATP synthase, which is a protein complex that catalyzes ATP synthesis by utilizing energy from the translocation of protons across biological membranes.^[ [40] ^] FOF1‐ATP synthase consists of two domains: the membrane‐spanning domain, FO, which acts as a proton channel, and the soluble catalytic domain, F1, which synthesizes ATP and is composed of nine subunits(α 3 β 3 γδɛ).^[ [41], [42], [43], [44] ^] […] To verify whether HI‐101 targeted ATP5A and ATP5B, we knocked down the subunits of F1 domains separately by shRNA.
F1‐ATPase at indicated concentrations was incubated with HI‐103 (4 nM), bodipy‐1 was as a negative molecule, conduct the experiment after incubating in 96‐well microplates of black polystyrene for 10 min. The FP results were analyzed with GraphPad Prism 9.0.

HIF‐1α protein level = test: western blot of HIF‐1α protein level in cells; type: cell-based, human; details: hypoxia
Experimental: Cells were lysed with RIPA lysis (Epizyme, PC101) containing 1% cocktail protease inhibitors (MCE), and protein concentrations were determined by BCA kits (Beyotime, P0012S). Samples were denatured using DS‐PAGE Protein Staining and Loading Buffer (5×) (Beyotime, P0015L) followed by boiling for 10 min at 98 °C then the proteins were fractionated by 10% or 12.5% SDS‐PAGE and transferred to Cellulose Nitrate Membrane Filters (WHATMAN). After blocking in 5% non‐fat milk for 2 h at room temperature, the membrane was incubated overnight with specific antibodies at 4 °C, followed by horseradish peroxidase (HRP)‐linked anti‐mouse or anti‐rabbit secondary antibody (Cell Signaling Technology). Finally, An Immobilon Western Chemiluminescent HRP Substrate Kit (Merck Millipore) was used for protein bands detection. In addition, blots were probed with anti‐β‐actin (Merck, Darmstadt, Germany) antibody as the internal control.

Sequence of F1‐ATP synthase complex (K7GLT8 entry or part of it): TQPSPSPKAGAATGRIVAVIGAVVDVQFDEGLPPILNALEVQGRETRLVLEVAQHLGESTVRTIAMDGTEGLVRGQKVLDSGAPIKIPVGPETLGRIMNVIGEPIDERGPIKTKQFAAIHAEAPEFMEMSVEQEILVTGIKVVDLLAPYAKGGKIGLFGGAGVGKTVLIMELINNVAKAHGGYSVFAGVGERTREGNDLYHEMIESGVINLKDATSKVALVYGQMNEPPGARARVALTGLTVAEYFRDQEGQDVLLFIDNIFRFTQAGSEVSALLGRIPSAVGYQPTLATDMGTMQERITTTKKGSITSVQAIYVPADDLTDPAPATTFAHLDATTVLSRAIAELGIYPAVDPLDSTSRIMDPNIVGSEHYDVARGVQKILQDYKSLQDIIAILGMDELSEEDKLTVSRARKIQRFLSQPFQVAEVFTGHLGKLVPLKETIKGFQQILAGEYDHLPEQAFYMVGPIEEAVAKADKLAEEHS
Sequence of F1‐ATP synthase complex (A0A286ZYL7 entry or part of it, further chain): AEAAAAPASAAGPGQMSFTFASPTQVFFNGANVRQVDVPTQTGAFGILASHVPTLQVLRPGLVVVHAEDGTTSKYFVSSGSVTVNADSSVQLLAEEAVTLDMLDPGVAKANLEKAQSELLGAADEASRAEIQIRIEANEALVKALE
Sequence of F1‐ATP synthase complex (A5GFX4 entry or part of it, further chain): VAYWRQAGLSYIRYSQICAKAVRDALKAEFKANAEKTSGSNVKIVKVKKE
Sequence of F1‐ATP synthase complex (P80021 44-553): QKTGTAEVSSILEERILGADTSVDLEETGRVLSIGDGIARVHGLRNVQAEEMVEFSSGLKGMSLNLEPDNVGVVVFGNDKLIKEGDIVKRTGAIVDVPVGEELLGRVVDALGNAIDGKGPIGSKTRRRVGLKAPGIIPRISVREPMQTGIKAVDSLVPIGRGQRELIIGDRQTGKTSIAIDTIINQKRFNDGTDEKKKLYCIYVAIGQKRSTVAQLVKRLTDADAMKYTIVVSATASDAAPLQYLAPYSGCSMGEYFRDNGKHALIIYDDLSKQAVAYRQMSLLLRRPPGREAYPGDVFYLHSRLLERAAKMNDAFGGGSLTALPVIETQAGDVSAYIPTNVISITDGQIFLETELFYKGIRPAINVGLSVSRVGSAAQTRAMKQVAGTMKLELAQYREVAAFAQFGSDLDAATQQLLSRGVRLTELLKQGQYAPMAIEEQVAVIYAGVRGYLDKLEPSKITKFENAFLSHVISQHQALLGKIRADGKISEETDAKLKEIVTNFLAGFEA

Compound	toxicity (body weight and mental status) [1]	concentration in the plasma (rough screen) ([2]; intraperitoneal 50 mg kg^−1, two mice per compound, five times)	AUC ([2]; mouse, ip, intraperitoneal, plasma, read-out: area under the curve (AUC0‐24 h))	Cmax ([2]; mouse, ip, intraperitoneal, plasma, read-out: maximum concentration (Cmax))	half-life ([2]; mouse, plasma, ip, intraperitoneal)	inhibition at 10 µM ([3]; HEK293T)	IC50 [3]	tumor growth (MHCC97‐L xenograft tumor; ATP5B KO MHCC97‐L xenograft models)	tumor volume and weight (MHCC97‐L xenograft tumor; wildtype MHCC97‐L xenograft, daily intraperitoneal injection)	body weight (MHCC97‐L xenograft tumor; wildtype MHCC97‐L xenograft, nude mice)	Kd (F1‐ATP synthase complex)	HIF‐1α protein level (HIF‐1α protein level)	HIF‐1α transcriptional activity (relative luciferase activity), in words ([3]; HEK293T, hypoxia)
C[N+](C)(C)CCCC(=O)Nc1ccc(C(=O)Nc2ccc(C34CC5CC(CC(C5)C3)C4)cc2)cc1 [1‐3au, 4‐((4‐((4‐((3r,5r,7r)‐Adamantan‐1‐yl)Phenyl)Carbamoyl)Phenyl)Amino)‐N,N,N‐Trimethyl‐4‐Oxobutan‐1‐Aminium]	not overtly toxic	high concentration in the plasma	861 µg·h/mL	91.7 µg/mL	5.66 h	89.9 ± 1.6%	1300 ± 300 nM	almost had no effect	reduced the tumor volume and weight	tolerant weight loss	–	–	–
CC1=CC(C)=[N+]2C1=C(CCCC(=O)Nc1ccc(C(=O)Nc3ccc(C45CC6CC(CC(C6)C4)C5)cc3)cc1)c1c(C)cc(C)n1[B-]2(F)F [1‐3z, N‐(4‐((3r,5r,7r)‐Adamantan‐1‐yl)Phenyl)−4‐(4‐(5,5‐Difluoro‐1,3,7,9‐Tetramethyl‐5H‐4l4,5l4‐Dipyrrolo[1,2‐c:2′,1′‐f][1,3,2]Diazaborinin‐10‐yl)Butanamido)Benzamide]	–	–	–	–	–	80.3 ± 1.2%	2100 ± 500 nM	–	–	–	2.6 nM	–	–
CC[C@H]1/C=C/C=C/C[C@@H](C)[C@H](O)[C@@](C)(O)C(=O)[C@@H](C)[C@H](O)[C@@H](C)C(=O)[C@@H](C)[C@H](O)[C@@H](C)/C=C/C(=O)O[C@@H]2[C@H](C)[C@H](CC1)O[C@]1(CC[C@H](C)[C@H](C[C@@H](C)O)O1)[C@H]2C [Oligomycin, reference compound]	–	–	–	–	–	–	–	–	–	–	–	decreased HIF‐1α transcriptional activity and protein level in a dose‐dependent manner	decreased HIF‐1α transcriptional activity and protein level in a dose‐dependent manner
